Measured values as given in patent US20090306053A1, “Highly selective rho-kinase inhibitor” (priority 2005, published 2009).

Columns and labels:
Assay type in all cases: biochemical
Purified chicken MLCK = target: T1, Purified chicken MLCK (Gallus gallus, UniProt P11799); experiment: MLCK kinase assay (Kinase-Glo ATP consumption); details: 1 μM ATP; read-out: Kinase Inhibiting Activity (IC50) MLCK
T1 construct: from tissue
Method: Purified chicken MLCK (purified by the method of M. Anne Conti, et al.: Method in Enzymol. 196, 34-47) was used to evaluate its activity to phosphorylate a substrate peptide (AKRPQRATSNVFS, Sigma).
(§1) In a system of the total volume of 50 μL, the reaction of the above-mentioned enzyme (100 ng) was carried out at room temperature for 80 minutes in the presence of 20 mM of Tris-HCl (pH 7.5), 5 mM of magnesium chloride, 0.2 mM of calcium chloride, 0.02 mg/mL of BSA, 8 μg/mL of purified bovine brain calmodulin (Sigma), 50 μM of the above peptide, and 1 μM of ATP. After the kinase reaction, the luminescence intensity corresponding to the amount of ATP in the reaction system was measured using a luciferase reagent (Kinase-Glo Luminescent Kinase Assay kit, Promega) with a chemiluminescence measurement apparatus (MicroLumat, Berthold Technologies). The amount of ATP consumed by the phosphorylation reaction was calculated by comparison with the luminescence intensity in the system when the kinase reaction was not carried out.
(§2) With this system, the kinase reaction was carried out in the presence of a compound at various concentrations, and the IC50 value of the compound was determined based on the resulting compound concentration-response curve for ATP consumption.

Recombinant mouse MKK4 = target: T2, Recombinant mouse MKK4 (Mus musculus, UniProt P47809); experiment: MKK4 kinase assay (Kinase-Glo ATP consumption); details: 1 μM ATP; read-out: Kinase Inhibiting Activity (IC50) MKK4
T2 construct: from 34th to 397th amino acids; purchased Upstate
T2 sequence (P47809 34-397): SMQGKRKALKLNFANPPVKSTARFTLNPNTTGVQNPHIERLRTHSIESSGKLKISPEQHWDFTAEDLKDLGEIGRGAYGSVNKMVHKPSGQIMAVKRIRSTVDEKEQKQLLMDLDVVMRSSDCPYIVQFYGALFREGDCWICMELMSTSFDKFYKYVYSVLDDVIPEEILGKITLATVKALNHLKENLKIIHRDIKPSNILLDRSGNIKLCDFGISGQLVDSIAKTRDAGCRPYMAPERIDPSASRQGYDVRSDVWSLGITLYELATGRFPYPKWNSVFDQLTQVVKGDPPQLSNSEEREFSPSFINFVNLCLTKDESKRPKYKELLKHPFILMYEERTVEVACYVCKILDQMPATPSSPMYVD
Method: as §1, with “enzyme (400” for “enzyme (100”, “of 25” for “of 20”, “7.5), 10” for “7.5), 5”, “chloride,” for “chloride, 0.2 mM of calcium chloride,”, “of” for “of BSA, 8 μg/mL of purified bovine brain calmodulin (Sigma), 50 μM of”, “above JNK1α1,” for “above peptide,”
as §2

Recombinant human Src = target: T3, Recombinant human Src (Homo sapiens, UniProt P12931); experiment: Src kinase assay (Kinase-Glo ATP consumption); details: 0.5 μM ATP; read-out: Kinase Inhibiting Activity (IC50) Src
T3 construct: purchased Upstate
Method: Recombinant human Src (Upstate) was used to evaluate its activity to phosphorylate a substrate peptide (KVEKIGEGTYGVVYK, Upstate).
(§3) In a system of the total volume of 50 μL, the reaction of the above-mentioned enzyme (6 Units) was carried out at room temperature for 80 minutes in the presence of 40 mM of MOPS-NaOH (pH 7.5), 10 mM of magnesium chloride, 25 mM of manganese chloride, 300 μM of the above peptide, and 0.5 μM of ATP. After the kinase reaction, the luminescence intensity corresponding to the amount of ATP in the reaction system was measured using a luciferase reagent (Kinase-Glo Luminescent Kinase Assay kit, Promega) with a chemiluminescence measurement apparatus (MicroLumat, Berthold Technologies). The amount of ATP consumed by the phosphorylation reaction was calculated by comparison with the luminescence intensity in the system when the kinase reaction was not carried out.
as §2

Recombinant human Ab1 = target: T4, Recombinant human Ab1 (Homo sapiens, UniProt P00519); experiment: Abl kinase assay (Kinase-Glo ATP consumption); details: 1 μM ATP; read-out: Kinase Inhibiting Activity (IC50) Abl
T4 construct: from 27th to 1149th amino acids; purchased Upstate
Method: Recombinant human Ab1 (from 27th to 1149th amino acids, Upstate) was used to evaluate its activity to phosphorylate a substrate peptide (EAIYAAPFAKKK, Upstate).
as §3, with “(20 ng)” for “(6 Units)”, “50” for “40”, “Tris-HCl” for “MOPS-NaOH”, “50” for “25 mM of manganese chloride, 300”, “1” for “0.5”
as §2

Measured: IC50

T4 sequence (P00519 27-1149 isoform P00519-2): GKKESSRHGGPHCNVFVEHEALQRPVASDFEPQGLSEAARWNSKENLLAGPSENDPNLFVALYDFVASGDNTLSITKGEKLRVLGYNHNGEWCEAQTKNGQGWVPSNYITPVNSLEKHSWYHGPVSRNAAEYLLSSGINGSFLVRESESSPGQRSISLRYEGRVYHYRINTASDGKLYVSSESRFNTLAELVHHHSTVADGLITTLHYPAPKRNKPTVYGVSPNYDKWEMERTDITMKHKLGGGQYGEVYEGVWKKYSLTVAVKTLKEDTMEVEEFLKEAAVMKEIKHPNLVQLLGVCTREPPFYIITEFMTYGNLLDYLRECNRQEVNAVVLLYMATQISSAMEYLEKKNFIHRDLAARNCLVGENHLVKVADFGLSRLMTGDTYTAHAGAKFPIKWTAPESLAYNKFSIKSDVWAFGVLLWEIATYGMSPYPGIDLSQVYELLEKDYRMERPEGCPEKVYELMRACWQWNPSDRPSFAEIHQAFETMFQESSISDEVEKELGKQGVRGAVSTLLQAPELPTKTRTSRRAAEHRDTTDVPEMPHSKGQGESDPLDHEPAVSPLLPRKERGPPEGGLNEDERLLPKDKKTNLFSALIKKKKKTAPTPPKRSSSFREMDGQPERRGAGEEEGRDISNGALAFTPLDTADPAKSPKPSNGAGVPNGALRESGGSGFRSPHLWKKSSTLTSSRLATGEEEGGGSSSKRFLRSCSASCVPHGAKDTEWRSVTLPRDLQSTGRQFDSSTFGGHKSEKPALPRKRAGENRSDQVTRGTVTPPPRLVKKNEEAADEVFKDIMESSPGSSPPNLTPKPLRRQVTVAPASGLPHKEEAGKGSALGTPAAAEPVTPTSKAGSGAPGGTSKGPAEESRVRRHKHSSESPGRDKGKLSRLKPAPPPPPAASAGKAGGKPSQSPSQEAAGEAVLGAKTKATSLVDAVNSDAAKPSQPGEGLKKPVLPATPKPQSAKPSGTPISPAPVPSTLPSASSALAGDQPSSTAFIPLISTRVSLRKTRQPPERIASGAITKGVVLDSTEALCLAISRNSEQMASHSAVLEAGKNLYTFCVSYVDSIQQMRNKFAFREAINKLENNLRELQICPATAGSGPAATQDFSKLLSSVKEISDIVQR

2-(S)-1-(4-fluoroisoquinoline-5-sulfonyl)-4-glycyl-2-methylhomopiperazine dihydrochloride [Example 1]
> 100 µM: all assays above

CNCC(=O)N1CCCN(S(=O)(=O)c2cccc3cncc(F)c23)[C@@H](C)C1.Cl.Cl [Example 2, 2-(S)-1-(4-fluoroisoquinoline-5-sulfonyl)-2-methyl-4-(N-methylglycyl)homopiperazine dihydrochloride]
> 100 µM: all assays above
